Data as given in patent publication US7192746B2, “α-Isomaltosyltransferase, process for producing the same and use thereof” (Kabushiki Kaisha Hayashibara Seibutsu Kagaku Kenkyujo, priority 2000, dated 2007).

How the values were obtained:
Format in all cases: biochemical
[1] = test system: α-isomaltosyl-transferring enzyme from Arthrobacter globiformis A19; assay: Action on saccharides (substrates, TLC); design: key: −: there was found no substrate change before and after the enzymatic reaction; +: there were found both the reduction of substrate and the formation of cyclotetrasaccharide after the enzymatic reaction; conditions: partially purified enzyme, 2 units/g substrate, 2% (w/v) substrate, 30° C., pH 6.0, 24 hours
Excerpt: (§1) To examine the saccharides in the supernatant, they were separated from the supernatant by silica gel thin-layer chromatography (abbreviated as “TLC” hereinafter) using, as a developer, a mixture solution of n-butanol, pyridine, and water (=6:4:1), and, as a thin-layer plate, “[…] 60”, an aluminum plate (20×20 cm) for TLC commercialized by […]. The coloration of both the separated total sugars by the sulfuric acid-methanol method and the reducing saccharides by the diphenylamine-aniline method detected a non-reducing saccharide at a position with an Rf value of about 0.31, which was positive on the former detection method but negative on the latter detection method.
(§2) It was tested whether saccharides can be used as substrates for the α-isomaltosyl-transferring enzyme. For the purpose, a solution of maltose, maltotriose, maltotetraose, maltopentaose, maltohexaose, maltoheptaose, isomaltose, isomaltotriose, panose, isomaltosylmaltose, isopanose, α,α-trehalose, kojibiose, nigerose, α,β-trehalose, cellobiose, gentibiose, maltitol, maltotriitol, lactose, sucrose, α-cyclodextrin, β-cyclodextrin, γ-cyclodextrin, soluble starch, pullulan, or dextran was prepared. To each of the above solutions was added two units/g substrate of a purified specimen of either α-isomaltosyl-transferring enzyme from Bacillus globisporus C9 obtained by the method in Experiment 4, Bacillus globisporus C11 obtained by the method in Experiment 7, Bacillus globisporus N75 obtained by the method in Experiment 11, or Arthrobacter ramosus S1 obtained by the method in Experiment 15, or a partially purified α-isomaltosyl-transferring enzyme from Arthrobacter globiformis A19 obtained by the method in Experiment 15. The resulting each solution was adjusted to give a substrate concentration of 2% (w/v) and incubated at 30° C. and pH 6.0 for 24 hours. The enzyme solutions before and after the enzymatic reactions were respectively analyzed on TLC as disclosed in Experiment 1 to confirm whether the enzymes acted on these substrates.

[2] = test system: α-isomaltosyl-transferring enzyme from Arthrobacter ramosus S1; assay: Action on saccharides (substrates, TLC); design: key: −: there was found no substrate change before and after the enzymatic reaction; +: there were found both the reduction of substrate and the formation of cyclotetrasaccharide after the enzymatic reaction; conditions: 2 units/g substrate, 2% (w/v) substrate, 30° C., pH 6.0, 24 hours
Excerpt: as §1, §2

[3] = test system: α-isomaltosyl-transferring enzyme from Bacillus globisporus C11; assay: Action on saccharides (substrates, TLC); design: key: −: there was found no substrate change before and after the enzymatic reaction; +: there were found both the reduction of substrate and the formation of cyclotetrasaccharide after the enzymatic reaction; conditions: 2 units/g substrate, 2% (w/v) substrate, 30° C., pH 6.0, 24 hours
Excerpt: as §1, §2

[4] = test system: α-isomaltosyl-transferring enzyme from Bacillus globisporus C9; assay: Action on saccharides (substrates, TLC); design: key: −: there was found no substrate change before and after the enzymatic reaction; +: there were found both the reduction of substrate and the formation of cyclotetrasaccharide after the enzymatic reaction; conditions: 2 units/g substrate, 2% (w/v) substrate, 30° C., pH 6.0, 24 hours
Excerpt: as §1, §2

[5] = test system: α-isomaltosyl-transferring enzyme from Bacillus globisporus N75; assay: Action on saccharides (substrates, TLC); design: key: −: there was found no substrate change before and after the enzymatic reaction; +: there were found both the reduction of substrate and the formation of cyclotetrasaccharide after the enzymatic reaction; conditions: 2 units/g substrate, 2% (w/v) substrate, 30° C., pH 6.0, 24 hours
Excerpt: as §1, §2

[6] = test system: α-isomaltosyl-transferring enzyme from Arthrobacter globiformis A19; assay: Specificity to transferring acceptor; conditions: partially purified enzyme, panose as saccharide donor, 10 units/g substrate, 3.2% (w/v), 30° C., pH 6.0, 24 hours
Procedure, shortened: (§3)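 Panose donor + test saccharide (equimolar-equal conc.), 3.2% (w/v) total, 10 units/g substrate enzyme; 30° C., pH 6.0, 24 h. GLC (FID) for mono/disaccharide acceptors, HPLC (RI) for tri- and larger. Scored +/−.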

[7] = test system: α-isomaltosyl-transferring enzyme from Arthrobacter ramosus S1; assay: Specificity to transferring acceptor; conditions: panose as saccharide donor, 10 units/g substrate, 3.2% (w/v), 30° C., pH 6.0, 24 hours
Procedure, shortened: as §3

[8] = test system: α-isomaltosyl-transferring enzyme from Bacillus globisporus C11; assay: Specificity to transferring acceptor; conditions: panose as saccharide donor, 10 units/g substrate, 3.2% (w/v), 30° C., pH 6.0, 24 hours
Procedure, shortened: as §3

[9] = test system: α-isomaltosyl-transferring enzyme from Bacillus globisporus C9; assay: Specificity to transferring acceptor; conditions: panose as saccharide donor, 10 units/g substrate, 3.2% (w/v), 30° C., pH 6.0, 24 hours
Procedure, shortened: as §3

[10] = test system: α-isomaltosyl-transferring enzyme from Bacillus globisporus N75; assay: Specificity to transferring acceptor; conditions: panose as saccharide donor, 10 units/g substrate, 3.2% (w/v), 30° C., pH 6.0, 24 hours
Procedure, shortened: as §3

Compound	Enzymatic action for forming cyclotetrasaccharide, Enzyme of Strain A19 [1]	Enzymatic action for forming cyclotetrasaccharide, Enzyme of Strain S1 [2]	Enzymatic action for forming cyclotetrasaccharide, Enzyme of Strain C11 [3]	Enzymatic action for forming cyclotetrasaccharide, Enzyme of Strain C9 [4]	Enzymatic action for forming cyclotetrasaccharide, Enzyme of Strain N75 [5]	Product of transferring reaction, Enzyme of Stain A19 [6]	Product of transferring reaction, Enzyme of Strain S1 [7]	Product of transferring reaction, Enzyme of Strain C11 [8]	Product of transferring reaction, Enzyme of Strain C9 [9]	Product of transferring reaction, Enzyme of Strain N75 [10]
OC[C@H]1O[C@@H](OC[C@H]2OC(O)[C@H](O)[C@@H](O)[C@@H]2O)[C@H](O)[C@@H](O)[C@@H]1O (some centres unmarked) [Gentibiose, gentibiose]	−	−	−	−	−	+ (a saccharide-transferred product was formed in an amount of over one percent but below 10% to the total sugars)	+ (a saccharide-transferred product was formed in an amount of over one percent but below 10% to the total sugars)	++ (a saccharide-transferred product was formed in an amount of over 10% to the total sugars)	++ (a saccharide-transferred product was formed in an amount of over 10% to the total sugars)	++ (a saccharide-transferred product was formed in an amount of over 10% to the total sugars)
OC[C@H]1O[C@H](OC[C@H]2OC(O)[C@H](O)[C@@H](O)[C@@H]2O)[C@H](O)[C@@H](O)[C@@H]1O (some centres unmarked) [Isomaltose, isomaltose]	−	−	−	−	−	++ (a saccharide-transferred product was formed in an amount of over 10% to the total sugars)	++ (a saccharide-transferred product was formed in an amount of over 10% to the total sugars)	++ (a saccharide-transferred product was formed in an amount of over 10% to the total sugars)	++ (a saccharide-transferred product was formed in an amount of over 10% to the total sugars)	++ (a saccharide-transferred product was formed in an amount of over 10% to the total sugars)
OC[C@H]1O[C@H](OC[C@H]2O[C@H](OC[C@H]3OC(O)[C@H](O)[C@@H](O)[C@@H]3O)[C@H](O)[C@@H](O)[C@@H]2O)[C@H](O)[C@@H](O)[C@@H]1O (some centres unmarked) [Isomaltotriose, isomaltotriose]	−	−	−	−	−	+ (a saccharide-transferred product was formed in an amount of over one percent but below 10% to the total sugars)	++ (a saccharide-transferred product was formed in an amount of over 10% to the total sugars)	+ (a saccharide-transferred product was formed in an amount of over one percent but below 10% to the total sugars)	+ (a saccharide-transferred product was formed in an amount of over one percent but below 10% to the total sugars)	+ (a saccharide-transferred product was formed in an amount of over one percent but below 10% to the total sugars)
OC[C@H]1O[C@H](O[C@H]2[C@H](O)[C@@H](O)[C@@H](OC[C@H]3OC(O)[C@H](O)[C@@H](O)[C@@H]3O)O[C@@H]2CO)[C@H](O)[C@@H](O)[C@@H]1O (some centres unmarked) [Isopanose, isopanose]	−	−	−	−	−	+ (a saccharide-transferred product was formed in an amount of over one percent but below 10% to the total sugars)	+ (a saccharide-transferred product was formed in an amount of over one percent but below 10% to the total sugars)	+ (a saccharide-transferred product was formed in an amount of over one percent but below 10% to the total sugars)	+ (a saccharide-transferred product was formed in an amount of over one percent but below 10% to the total sugars)	+ (a saccharide-transferred product was formed in an amount of over one percent but below 10% to the total sugars)
OC[C@H]1O[C@H](O[C@H]2C(O)O[C@H](CO)[C@@H](O)[C@@H]2O)[C@H](O)[C@@H](O)[C@@H]1O (some centres unmarked) [Kojibiose, kojibiose]	−	−	−	−	−	+ (a saccharide-transferred product was formed in an amount of over one percent but below 10% to the total sugars)	+ (a saccharide-transferred product was formed in an amount of over one percent but below 10% to the total sugars)	+ (a saccharide-transferred product was formed in an amount of over one percent but below 10% to the total sugars)	+ (a saccharide-transferred product was formed in an amount of over one percent but below 10% to the total sugars)	+ (a saccharide-transferred product was formed in an amount of over one percent but below 10% to the total sugars)
